Patent US11591331B2, “PARP1 inhibitors and uses thereof” (Xinthera, Inc., priority 2021, dated 2023)

How the values were obtained:
[1] = tested on: DLD-1 BRCA2(−/−); assay: Cell growth inhibition assay (CellTiter-Glo cell viability, 7 days); assay type: cell-based; conditions: Homo sapiens, 168 h, DLD-1 BRCA2(-/-) cells
[2] = tested on: MDA-MB-436 (mutated BRCA1) cell lines; assay: as above; assay type: cell-based; conditions: Homo sapiens, 168 h, MDA-MB-436 cells

Row | SMILES | EC50 [1] | EC50 [2]
1 | [2H]C([2H])([2H])NC(=O)c1ccc(N2CCN(Cc3cnc4cc(CC)c(=O)[nH]c4c3)[C@H]3C[C@H]32)cn1 (racemic) [Example 90] | 6.4 nM | 4.3 nM
2 | CCc1cc2ncc(CN3CCN(c4ccc(NC(=O)[C@H]5CCO5)nc4)CC3)cc2[nH]c1=O (racemic) [Example 103] | 6.6 nM | 5.2 nM
3 | CCc1cc2ncc(CN3CCN(c4cnc(C(=O)NC)c(F)c4)[C@H]4C[C@H]43)cc2[nH]c1=O (single isomer, unassigned) [Example 69] | 7.3 nM | 4.4 nM
4 | CNC(=O)c1ccc(N2CCN(Cc3cnc4c(c3)[nH]c(=O)c3ccoc34)[C@@H]3C[C@@H]32)cn1 (single isomer, unassigned) [Example 85] | 14 nM | 13 nM
5 | CNC(=O)c1ccc(N2CCN(Cc3cnc4cc(C)c(=O)[nH]c4c3)[C@H]3C[C@H]32)cn1 (single isomer, unassigned) [Example 99] | 16 nM | 11 nM
6 | [2H]C([2H])([2H])NC(=O)c1ccc(N2CCN(Cc3cnc4cc(C5CC5)c(=O)[nH]c4c3)[C@H]3C[C@H]32)cn1 (single isomer, unassigned) [Example 107] | 9.1 nM | 2.5 nM
7 | Cc1cc2ncc(CN3CCN(c4ccc(C(=O)NC5CC5)nc4)[C@@H]4C[C@@H]43)cc2[nH]c1=O (single isomer, unassigned) [Example 109] | 37 nM | 14 nM
8 | CNC(=O)c1ccc(N2CCN(Cc3cnc4cc(C5CC5)c(=O)[nH]c4c3)[C@H]3C[C@H]32)cn1 (single isomer, unassigned) [Example 110] | 5.7 nM | 3.3 nM
9 | O=C(NC1CC1)c1ccc(N2CCN(Cc3cnc4cc(C5CC5)c(=O)[nH]c4c3)[C@H]3C[C@H]32)cn1 (single isomer, unassigned) [Example 112] | 7.8 nM | 3.3 nM
10 | CNC(=O)c1ncc(N2CCN(Cc3cnc4cc(C5CC5)c(=O)[nH]c4c3)[C@H]3C[C@H]32)cc1F (single isomer, unassigned) [Example 113] | 45 nM | 20 nM

Stronger by EC50 [1], values ahead:

Row | EC50 [1] | EC50 [2] | SMILES
11 | 4.1 nM | – | CCc1cc2ncc([C@@H](C)N3CCN(c4ccc(C(=O)NC)nc4)CC3)cc2[nH]c1=O (single isomer, unassigned) [Example 20]
12 | 1.7 nM | 0.9 nM | CCc1cc2ncc([C@H](C)N3CCN(c4ccc(C(=O)NC)nc4)CC3)cc2[nH]c1=O (single isomer, unassigned) [Example 21]
13 | 2.4 nM | 0.92 nM | CCc1cc2ncc(CN3CCN(c4ccc(C(=O)N[C@H]5CCCOC5)nc4)CC3)cc2[nH]c1=O (single isomer, unassigned) [Example 53]
14 | 2.8 nM | 1 nM | CCc1cc2ncc(CN3CCN(c4ccc(C(=O)N[C@@H]5CCCOC5)nc4)CC3)cc2[nH]c1=O (single isomer, unassigned) [Example 54]
15 | 1.6 nM | 0.98 nM | CCc1cc2ncc(CN3CCN(c4ccc(C(=O)NC)nc4C#N)[C@H]4C[C@H]43)cc2[nH]c1=O (single isomer, unassigned) [Example 76]
16 | 4.2 nM | 3.8 nM | CCc1cc2ncc(CN3CCN(c4ccc(C(=O)NC5COC5)nc4)[C@@H]4C[C@@H]43)cc2[nH]c1=O (single isomer, unassigned) [Example 88]
17 | 2.9 nM | 1.7 nM | [2H]C([2H])([2H])NC(=O)c1ccc(N2CCN(Cc3cnc4cc(CC)c(=O)[nH]c4c3)[C@@H]3C[C@@H]32)cn1 (single isomer, unassigned) [Example 96]
18 | 2 nM | 1.2 nM | CNC(=O)c1ccc(N2CCN(Cc3cnc4cc(C)c(=O)[nH]c4c3)[C@H]3C[C@H]32)c(C#N)n1 (single isomer, unassigned) [Example 98]
19 | 4.6 nM | 1.8 nM | CCc1cc2ncc(CN3CCN(c4ccc(C(=O)NC5CC5)nc4)[C@@H]4C[C@@H]43)cc2[nH]c1=O (single isomer, unassigned) [Example 111]
